Reference: publication PMC4687966 (Journal of medicinal chemistry, 2015)

Columns and labels:
Mtb BioA [1] = target: T1, Mtb BioA (Mycobacterium tuberculosis, UniProt P9WQ81); assay type: binding; conditions: for KA / ΔH / −TΔS / ΔG: 25 °C; for KA / ΔH: 100 µM BioA, pH 7.5; for −TΔS: from ΔG = ΔH − TΔS; for ΔG: ΔG = −RT ln KA; for LE (ligand efficiency): LE = (−ΔG)/N, N = number of non-hydrogen atoms
Mtb BioA [2] = target: T1, Mtb BioA; assay: Differential scanning fluorimetry; assay type: binding; conditions: DSF; holo BioA Tm 85 °C

T1 sequence (P9WQ81 whole entry): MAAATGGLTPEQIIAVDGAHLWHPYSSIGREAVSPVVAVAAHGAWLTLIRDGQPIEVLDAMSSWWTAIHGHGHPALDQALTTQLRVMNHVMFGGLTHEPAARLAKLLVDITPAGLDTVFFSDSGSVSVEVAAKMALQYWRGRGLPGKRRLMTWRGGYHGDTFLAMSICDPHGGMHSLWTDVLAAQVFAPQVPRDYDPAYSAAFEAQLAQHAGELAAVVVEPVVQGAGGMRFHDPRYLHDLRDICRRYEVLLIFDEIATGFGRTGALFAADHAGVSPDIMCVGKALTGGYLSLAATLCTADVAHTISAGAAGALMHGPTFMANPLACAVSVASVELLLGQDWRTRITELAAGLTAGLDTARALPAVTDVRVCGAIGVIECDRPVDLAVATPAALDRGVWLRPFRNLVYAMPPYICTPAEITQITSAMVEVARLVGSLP

SMILES	KA (Mtb BioA [1]; ITC)	ΔH (Mtb BioA [1]; ITC) [kcal/mol]	−TΔS (Mtb BioA [1]; ITC) [kcal/mol]	ΔG (Mtb BioA [1]; ITC) [kcal/mol]	LE (ligand efficiency) (Mtb BioA [1])	ΔH (enthalpic stabilization) (Mtb BioA [1]; ITC) [kcal/mol]	−TΔS (binding entropy) (Mtb BioA [1]; ITC)	Tm of BioA with compound (Mtb BioA [2]) [°C]	Improvement in KD over the parent fragment F5 (Mtb BioA [1]; ITC) [fold]
NC(=O)c1ccc(-n2ccnc2)cc1 [F3]	6.8 ± 1.3 10^4 M^−1	-6.3 ± 0.2	-0.2 ± 0.1	-6.6 ± 0.1	0.47	–	–	–	–
NC(=O)c1ccc(-c2ccccn2)s1 [F2]	14.6 ± 1.3 10^4 M^−1	-5.4 ± 0.0	-1.6 ± 0.1	-7.0 ± 0.1	0.50	–	–	–	–
NCc1nc2ccccc2s1 [F10]	3.3 ± 0.5 10^4 M^−1	-1.4 ± 0.2	-4.8 ± 0.1	-6.1 ± 0.1	0.55	–	–	–	–
CNCc1ccc(Cn2cccn2)cc1 [F5]	8.6 ± 0.1 10^4 M^−1	-12.9 ± 0.6	6.2 ± 0.6	-6.7 ± 0.0	0.45	-12.9	+6.2 kcal/mol	–	–
NCc1ccc(Cn2cc(Cl)cn2)cc1 [F5.1]	14.9 ± 1.7 10^4 M^−1	-11.3 ± 0.5	4.3 ± 0.5	-7.0 ± 0.1	0.47	–	–	73	1.7
CC(=O)Nc1ccc2c(c1)C=CC2=O [F9]	4.6 ± 0.3 10^4 M^−1	-3.3 ± 0.2	-3.0 ± 0.2	-6.3 ± 0.0	0.45	–	–	–	–
O=C(c1ccccc1)C1CCNCC1 [F7]	2.4 ± 0.4 10^4 M^−1	-4.9 ± 0.2	-1.1 ± 0.2	-6.0 ± 0.1	0.43	–	–	–	–
